The text below walks through data of patent US11912663B2, “Multi-targeted tyrosine kinase inhibitors and their pharmaceutical uses” (Shanghai AB PharmaTech Ltd., priority 2021, dated 2024).

SMILES strings stand for the structures.

One assay deals with pancreatic cancer cell line (BXPC3). Put plainly: tumor cell proliferation inhibition (CTG), pancreatic cancer cell line. It is filed as cell-based. As to conditions: Homo sapiens, BXPC-3, 72 hours.
Turning to `COc1cc2nccc(Oc3c(F)cc(NC(=O)NC4CC4)c(Cl)c3F)c2cc1C(=O)NC(C)C` [IIIb-04], the half-inhibitory concentration (IC50) (commonly the midpoint of a concentration-inhibition curve) is above 10 µM.

For the molecule `COc1cc2nccc(Oc3c(F)cc(NC(=O)NC4CC4)c(Cl)c3F)c2cc1C(=O)N1CC[C@@H](O)C1` [IIIb-25], the IC50 is above 10 µM.

With `COc1cc2nccc(Oc3c(F)cc(NC(=O)NC4CC4)c(Cl)c3F)c2cc1C(=O)N(C1CC1)C1CC1` [IIIb-13], the IC50 is above 10 µM.

`COc1cc2nccc(Oc3c(F)cc(NC(=O)NC4CC4)c(F)c3F)c2cc1C(=O)NC1CC1` [IIIb-11]: the half-maximal inhibitory concentration (IC50) is below 5 µM.

`COc1cc2nccc(Oc3c(F)cc(NC(=O)NC4CC4)c(Cl)c3F)c2cc1C(=O)N1CCN(C)CC1` [IIIb-27] gave an IC50 above 10 µM.

Consider `COc1cc2nccc(Oc3c(F)cc(NC(=O)NC4CC4)c(Cl)c3F)c2cc1C(=O)Nc1cnn(C)c1` [IIIb-53], for which the IC50 was above 10 µM.

The molecule `COc1cc2nccc(Oc3c(F)cc(NC(=O)NC4CC4)c(Cl)c3F)c2cc1C(=O)N[C@H](C)CO` [IIIb-17] had an IC50 above 10 µM.

Turning to `COc1cc2nccc(Oc3c(F)cc(NC(=O)NC4CC4)c(Cl)c3F)c2cc1C(=O)NC(C)(C)CO` [IIIb-19], the IC50 was above 10 µM.

`COc1cc2nccc(Oc3c(F)cc(NC(=O)NC4CC4)c(Cl)c3F)c2cc1C(=O)NC1(C#N)CC1` [IIIb-48] showed an IC50 above 10 µM.

Regarding `COc1cc2nccc(Oc3c(F)cc(NC(=O)NC4CC4)c(Cl)c3F)c2cc1C(=O)NC1CCN(C)CC1` [IIIb-28], the IC50 is above 10 µM.

Regarding `COc1cc2nccc(Oc3c(F)cc(NC(=O)NC4CC4)c(Cl)c3F)c2cc1C(=O)NCCN(C)C` [IIIb-10], the IC50 is above 10 µM.

For `COCCNC(=O)c1cc2c(Oc3c(F)cc(NC(=O)NC4CC4)c(Cl)c3F)ccnc2cc1OC` [IIIb-05], the IC50 is above 10 µM.

In turn, `COc1cc2nccc(Oc3c(F)cc(NC(=O)NC4CC4)c(Cl)c3F)c2cc1C(=O)N1CC[C@H](O)C1` [IIIb-26] returned a concentration for half-maximal inhibition (IC50) below 5 µM.

Turning to `COc1cc2nccc(Oc3c(F)cc(NC(=O)NC4CC4)c(Cl)c3F)c2cc1C(=O)Nc1cn[nH]c1` [IIIb-52], the half-inhibitory concentration (IC50) was above 10 µM.

`COc1cc2nccc(Oc3c(F)cc(NC(=O)NC4CC4)c(Cl)c3F)c2cc1C(=O)NC1(C(F)(F)F)CC1` [IIIb-41] yielded an IC50 above 10 µM.

In turn, `COc1cc2nccc(Oc3c(F)cc(NC(=O)NC4CC4)c(Cl)c3F)c2cc1C(=O)N(C)C` [IIIb-03] showed an IC50 above 10 µM.

Consider `COc1cc2nccc(Oc3c(F)cc(NC(=O)NC4CC4)c(Cl)c3F)c2cc1C(=O)N1CCC1` [IIIb-14], for which the IC50 was above 10 µM.

The subject of a further assay is lung cancer cell line (A549). The experiment in a line: tumor cell proliferation inhibition (CTG), lung cancer cell line. As to conditions: Homo sapiens, 72 hours. It is filed as cell-based.
`COc1cc2nccc(Oc3c(F)cc(NC(=O)NC4CC4)c(Cl)c3F)c2cc1C(=O)NC(C)C` [IIIb-04] yielded an IC50 above 5 µM.

In turn, `COc1cc2nccc(Oc3c(F)cc(NC(=O)NC4CC4)c(Cl)c3F)c2cc1C(=O)N1CC[C@@H](O)C1` [IIIb-25] had a half-maximal inhibitory concentration (IC50) above 5 µM.

`COc1cc2nccc(Oc3c(F)cc(NC(=O)NC4CC4)c(Cl)c3F)c2cc1C(=O)N(C1CC1)C1CC1` [IIIb-13] showed an IC50 above 5 µM.

Consider `COc1cc2nccc(Oc3c(F)cc(NC(=O)NC4CC4)c(F)c3F)c2cc1C(=O)NC1CC1` [IIIb-11], for which the IC50 is below 2.5 µM.

Take `COc1cc2nccc(Oc3c(F)cc(NC(=O)NC4CC4)c(Cl)c3F)c2cc1C(=O)N1CCN(C)CC1` [IIIb-27]: the concentration for half-maximal inhibition (IC50) was above 5 µM.

In turn, `COc1cc2nccc(Oc3c(F)cc(NC(=O)NC4CC4)c(Cl)c3F)c2cc1C(=O)Nc1cnn(C)c1` [IIIb-53] gave an IC50 above 5 µM.

As for `COc1cc2nccc(Oc3c(F)cc(NC(=O)NC4CC4)c(Cl)c3F)c2cc1C(=O)N[C@H](C)CO` [IIIb-17], the IC50 was above 5 µM.

With `COc1cc2nccc(Oc3c(F)cc(NC(=O)NC4CC4)c(Cl)c3F)c2cc1C(=O)NC(C)(C)CO` [IIIb-19], the IC50 was above 5 µM.

Consider `COc1cc2nccc(Oc3c(F)cc(NC(=O)NC4CC4)c(Cl)c3F)c2cc1C(=O)NC1(C#N)CC1` [IIIb-48], for which the IC50 is above 5 µM.

Molecule `COc1cc2nccc(Oc3c(F)cc(NC(=O)NC4CC4)c(Cl)c3F)c2cc1C(=O)NC1CCN(C)CC1` [IIIb-28] had an IC50 above 5 µM.

`COc1cc2nccc(Oc3c(F)cc(NC(=O)NC4CC4)c(Cl)c3F)c2cc1C(=O)NCCN(C)C` [IIIb-10] came in with an IC50 above 5 µM.

Take `COCCNC(=O)c1cc2c(Oc3c(F)cc(NC(=O)NC4CC4)c(Cl)c3F)ccnc2cc1OC` [IIIb-05]: the half-inhibitory concentration (IC50) is above 5 µM.

As to `COc1cc2nccc(Oc3c(F)cc(NC(=O)NC4CC4)c(Cl)c3F)c2cc1C(=O)N1CC[C@H](O)C1` [IIIb-26], the IC50 was below 2.5 µM.

As to `COc1cc2nccc(Oc3c(F)cc(NC(=O)NC4CC4)c(Cl)c3F)c2cc1C(=O)Nc1cn[nH]c1` [IIIb-52], the IC50 was above 5 µM.

The molecule `COc1cc2nccc(Oc3c(F)cc(NC(=O)NC4CC4)c(Cl)c3F)c2cc1C(=O)NC1(C(F)(F)F)CC1` [IIIb-41] had an IC50 above 5 µM.

Molecule `COc1cc2nccc(Oc3c(F)cc(NC(=O)NC4CC4)c(Cl)c3F)c2cc1C(=O)N(C)C` [IIIb-03] had an IC50 above 5 µM.

Turning to `COc1cc2nccc(Oc3c(F)cc(NC(=O)NC4CC4)c(Cl)c3F)c2cc1C(=O)N1CCC1` [IIIb-14], the IC50 is above 5 µM.

The subject of the next assay is kidney cancer cell line (Caki-1). Put plainly: tumor cell proliferation inhibition (CTG), kidney cancer cell line. It is filed as cell-based. As to conditions: Homo sapiens, 72 hours, read-out: Caki-1 (renal cancer) IC50.
As to `COc1cc2nccc(Oc3c(F)cc(NC(=O)NC4CC4)c(Cl)c3F)c2cc1C(=O)NC(C)C` [IIIb-04], the IC50 was above 5 µM.

As for `COc1cc2nccc(Oc3c(F)cc(NC(=O)NC4CC4)c(Cl)c3F)c2cc1C(=O)N1CC[C@@H](O)C1` [IIIb-25], the IC50 is above 5 µM.

Regarding `COc1cc2nccc(Oc3c(F)cc(NC(=O)NC4CC4)c(Cl)c3F)c2cc1C(=O)N(C1CC1)C1CC1` [IIIb-13], the IC50 is above 5 µM.

For the molecule `COc1cc2nccc(Oc3c(F)cc(NC(=O)NC4CC4)c(F)c3F)c2cc1C(=O)NC1CC1` [IIIb-11], the IC50 was below 2.5 µM.

With `COc1cc2nccc(Oc3c(F)cc(NC(=O)NC4CC4)c(Cl)c3F)c2cc1C(=O)N1CCN(C)CC1` [IIIb-27], the IC50 is above 5 µM.

For the molecule `COc1cc2nccc(Oc3c(F)cc(NC(=O)NC4CC4)c(Cl)c3F)c2cc1C(=O)Nc1cnn(C)c1` [IIIb-53], the IC50 is above 5 µM.

In the case of `COc1cc2nccc(Oc3c(F)cc(NC(=O)NC4CC4)c(Cl)c3F)c2cc1C(=O)N[C@H](C)CO` [IIIb-17], the IC50 is above 5 µM.

For `COc1cc2nccc(Oc3c(F)cc(NC(=O)NC4CC4)c(Cl)c3F)c2cc1C(=O)NC(C)(C)CO` [IIIb-19], the IC50 is above 5 µM.

As to `COc1cc2nccc(Oc3c(F)cc(NC(=O)NC4CC4)c(Cl)c3F)c2cc1C(=O)NC1(C#N)CC1` [IIIb-48], the IC50 was above 5 µM.

On to `COc1cc2nccc(Oc3c(F)cc(NC(=O)NC4CC4)c(Cl)c3F)c2cc1C(=O)NC1CCN(C)CC1` [IIIb-28], for which the IC50 is above 5 µM.

In the case of `COc1cc2nccc(Oc3c(F)cc(NC(=O)NC4CC4)c(Cl)c3F)c2cc1C(=O)NCCN(C)C` [IIIb-10], the IC50 is above 5 µM.

Consider `COCCNC(=O)c1cc2c(Oc3c(F)cc(NC(=O)NC4CC4)c(Cl)c3F)ccnc2cc1OC` [IIIb-05], for which the IC50 is above 5 µM.

Consider `COc1cc2nccc(Oc3c(F)cc(NC(=O)NC4CC4)c(Cl)c3F)c2cc1C(=O)N1CC[C@H](O)C1` [IIIb-26], for which the IC50 is below 2.5 µM.

In the case of `COc1cc2nccc(Oc3c(F)cc(NC(=O)NC4CC4)c(Cl)c3F)c2cc1C(=O)Nc1cn[nH]c1` [IIIb-52], the IC50 is above 5 µM.

In the case of `COc1cc2nccc(Oc3c(F)cc(NC(=O)NC4CC4)c(Cl)c3F)c2cc1C(=O)NC1(C(F)(F)F)CC1` [IIIb-41], the IC50 was above 5 µM.

As to `COc1cc2nccc(Oc3c(F)cc(NC(=O)NC4CC4)c(Cl)c3F)c2cc1C(=O)N(C)C` [IIIb-03], the IC50 is above 5 µM.

`COc1cc2nccc(Oc3c(F)cc(NC(=O)NC4CC4)c(Cl)c3F)c2cc1C(=O)N1CCC1` [IIIb-14]: the IC50 was above 5 µM.
